In brackets after ≈: the same amount, converted by molar mass.

In the experiment the test system is Mycobacterium tuberculosis. Nature of the experiment: Antimycobacterial activity against Mycobacterium tuberculosis H37Rv by agar dilution method. The experiment is classed as functional. Background: In agar dilution, organisms are placed on agar that contains the substance at set levels.
The MIC is the lowest concentration found to suppress growth. A lower MIC goes with inhibition by little substance. Take `O=C1CCCc2nc(-c3ccccc3)ccc21`: the lowest concentration to inhibit growth (MIC) was 12.5 µg/mL (≈ 56 µM). As to `Cc1ccc(-c2ccc3c(n2)CCCC3=O)cc1`, the minimal inhibitory concentration (MIC) was determined as 12.5 µg/mL (≈ 52.7 µM).

Compound `COc1ccc(-c2ccc3c(n2)CCCC3=O)cc1` had an MIC of 12.5 µg/mL (≈ 49.3 µM). Compound `O=C1CCCc2nc(-c3cccs3)ccc21` registered a minimum inhibitory concentration (MIC) of 12.5 µg/mL (≈ 54.5 µM).

`O=C1CCCc2nc(-c3ccc(Cl)s3)ccc21`: 6.25 µg/mL (≈ 23.7 µM) was the least that counted as inhibitory (MIC). For the compound `O=C1CCCc2nc(-c3ccc(Br)s3)ccc21`, the lowest concentration to inhibit growth (MIC) was 6.25 µg/mL (≈ 20.3 µM). As for `CC1(C)CC(=O)c2ccc(-c3ccccc3)nc2C1`, the MIC was 12.5 µg/mL (≈ 49.7 µM). Regarding `Cc1ccc(-c2ccc3c(n2)CC(C)(C)CC3=O)cc1`, inhibition of growth (MIC) required 6.25 µg/mL (≈ 23.6 µM). Against the preceding compound, the MIC is about 2-fold lower.

For the compound `COc1ccc(-c2ccc3c(n2)CC(C)(C)CC3=O)cc1`, it took 12.5 µg/mL (≈ 44.4 µM) to inhibit growth (MIC). Regarding `CC1(C)CC(=O)c2ccc(-c3cccs3)nc2C1`, the MIC was found to be 6.25 µg/mL (≈ 24.3 µM). For `CC1(C)CC(=O)c2ccc(-c3ccc(Cl)s3)nc2C1` the value was 3.13 µg/mL (≈ 10.7 µM); for `CC1(C)CC(=O)c2ccc(-c3ccc(Br)s3)nc2C1`, 3.13 µg/mL (≈ 9.31 µM); for `O=C1c2ccc(-c3ccccc3)nc2CCC1(CO)CO`, above 25 µg/mL. Compound `Cc1ccc(-c2ccc3c(n2)CCC(CO)(CO)C3=O)cc1` registered an MIC above 25 µg/mL. `COc1ccc(-c2ccc3c(n2)CCC(CO)(CO)C3=O)cc1`: the MIC is above 25 µg/mL. With `O=C1c2ccc(-c3cccs3)nc2CCC1(CO)CO` the figure was above 25 µg/mL; with `O=C1c2ccc(-c3ccc(Cl)s3)nc2CCC1(CO)CO`, above 25 µg/mL; with `O=C1c2ccc(-c3ccc(Br)s3)nc2CCC1(CO)CO`, above 25 µg/mL.

In turn, `CC[C@@H](CO)NCCN[C@@H](CC)CO` [ETHAMBUTOL] displayed an MIC of 3.13 µg/mL (≈ 15.3 µM). For `NNC(=O)c1ccncc1` [ISONIAZID] the value was 0.1 µg/mL (≈ 0.729 µM); for `NC(=O)c1cnccn1` [PYRAZINAMIDE], 50 µg/mL (≈ 406 µM).
